Our source for the IC50 and Activity values is ChEMBL document CHEMBL1143949, “Antiproliferative effects of 6-anilino-5-chloro-1H-benzo[d]imidazole-4,7-dione in vascular smooth muscle cells” (Bioorg Med Chem, 2008).

The source made the active and inactive calls. The calls are words filed in the database; no cut-off is given here.

One experiment has as its system NIH3T3. The experiment can be described thus: Antiproliferative activity against mouse NIH3T3 cells. The format is functional, cell-based.
The test system of another experiment is HUVEC. The experiment can be described thus: Antiproliferative activity against HUVEC. It counts as functional, cell-based. To be noted: Homo sapiens.
The nature of experiment [1]: Antiproliferative activity against rat aortic smooth muscle cells. It counts as functional.
Experiment [2] can be described thus: Cell cycle arrest in rat aortic smooth muscle cells assessed as accumulation at S phase at 1 uM after 16 hrs. The format is functional.
A short description of experiment [3]: Cell cycle arrest in rat aortic smooth muscle cells assessed as accumulation at G1 phase at 1 uM after 16 hrs. The format is functional.
The nature of experiment [4]: Cell cycle arrest in rat aortic smooth muscle cells assessed as accumulation at G0/G1 phase at 1 uM after 16 hrs. It counts as functional.
Experiment [5] can be described thus: Cell cycle arrest in rat aortic smooth muscle cells assessed as accumulation at G2 phase at 1 uM after 16 hrs. The format is functional.
The target of experiment [6] is Mitogen-activated protein kinase 1 (Rattus norvegicus) (UniProt P63086). The experiment can be described thus: Activation of ERK2 phosphorylation in rat aortic smooth muscle cells at 1 uM.
The species entered for experiment [7] is Rattus norvegicus. Nature of the experiment: Effect on PDGF and serum-induced cyclin E expression in rat aortic smooth muscle cells at 1 uM. It counts as functional.
The species named for experiment [8] is Rattus norvegicus. The experiment can be described thus: Induction of apoptosis in rat aortic smooth muscle cells assessed as caspase 3 activation at 1 uM. The format is functional.
The species entered for experiment [9] is Rattus norvegicus. The experiment can be described thus: Inhibition of PDGF and FBS-induced migration of rat aortic smooth muscle cells by transwell plate assay. It counts as functional.
For experiment [10], the target named is Mitogen-activated protein kinase 3 (Rattus norvegicus) (UniProt P21708). The experiment can be described thus: Activation of ERK1 phosphorylation in rat aortic smooth muscle cells at 1 uM.
The nature of experiment [11]: Cell cycle arrest in rat smooth muscle cells assessed as accumulation at G2/M phase at 1 uM after 16 hrs. The format is functional, cell-based.
Experiment [12] deals with MAP kinase p38 (Homo sapiens) (UniProt O15264+Q15759+Q16539+P53778). The experiment can be described thus: Activation of p38 phosphorylation in rat aortic smooth muscle cells at 1 uM.

Chain of Mitogen-activated protein kinase 3 (Rattus norvegicus) (P21708 whole entry): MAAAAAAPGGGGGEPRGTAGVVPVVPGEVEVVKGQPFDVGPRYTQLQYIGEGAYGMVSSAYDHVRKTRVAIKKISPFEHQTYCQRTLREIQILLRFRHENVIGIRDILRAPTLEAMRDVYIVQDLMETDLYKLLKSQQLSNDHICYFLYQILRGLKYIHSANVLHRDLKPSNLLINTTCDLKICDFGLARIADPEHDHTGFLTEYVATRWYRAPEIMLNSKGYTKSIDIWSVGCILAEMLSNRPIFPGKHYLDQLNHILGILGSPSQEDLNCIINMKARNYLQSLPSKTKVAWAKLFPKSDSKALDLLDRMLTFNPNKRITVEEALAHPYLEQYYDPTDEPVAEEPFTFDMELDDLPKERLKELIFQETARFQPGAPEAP
Chain of Mitogen-activated protein kinase 1 (Rattus norvegicus) (P63086 whole entry): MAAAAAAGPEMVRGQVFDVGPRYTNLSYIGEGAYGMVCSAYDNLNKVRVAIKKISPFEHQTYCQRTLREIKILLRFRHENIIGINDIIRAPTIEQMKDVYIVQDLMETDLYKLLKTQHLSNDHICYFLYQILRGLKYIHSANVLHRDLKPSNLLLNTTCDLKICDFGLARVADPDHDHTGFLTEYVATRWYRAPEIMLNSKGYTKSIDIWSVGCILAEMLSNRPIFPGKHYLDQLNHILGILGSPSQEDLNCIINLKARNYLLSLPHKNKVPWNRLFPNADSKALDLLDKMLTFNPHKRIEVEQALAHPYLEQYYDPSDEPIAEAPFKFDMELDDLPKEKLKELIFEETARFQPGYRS

`Cc1nc2c([nH]1)C(=O)/C(=N/c1cccc(Cl)c1Cl)C(Cl)=C2O`: the values for the IC50 (with NIH3T3; in the experiment on HUVEC; in experiment [1]) were 2300 nM, 300 nM and 600 nM, respectively.
Turning to `Cc1nc2c([nH]1)C(=O)/C(=N/c1ccc(F)cc1)C(Cl)=C2O`, the IC50 with NIH3T3 came to 1200 nM; in the experiment on HUVEC, 1000 nM; in experiment [1], 3000 nM.
The corresponding values for `Cc1nc2c([nH]1)C(=O)/C(=N/c1ccc(F)cc1F)C(Cl)=C2O` are 800 nM, 1000 nM and 1200 nM.
The corresponding values for `Cc1nc2c([nH]1)C(=O)/C(=N/c1cccc(Cl)c1)C(Cl)=C2O` are 1600 nM, 600 nM and 900 nM.
`Cc1nc2c([nH]1)C(=O)/C(=N/c1ccc(F)c(F)c1F)C(Cl)=C2O`: the figures for the IC50 (in the experiment on NIH3T3; with HUVEC; in [1]) were 1600 nM, 500 nM and 800 nM, respectively.
The corresponding values for `Cc1nc2c([nH]1)C(=O)/C(=N/c1ccc(I)cc1)C(Cl)=C2O` are 600 nM, 2000 nM and 1000 nM.
Take `Cc1nc2c([nH]1)C(=O)/C(=N/c1ccccc1)C(Cl)=C2O`: the Activity in [2] amounted to 23.3%; in [4] it was 56.4%; in experiment [11], 20.1%. The IC50 with NIH3T3 amounted to 5200 nM; with HUVEC, 1200 nM; in experiment [1] it was 800 nM. Further, the result (in experiment [3]; in experiment [5]; in the experiment listed under Rattus norvegicus [7]) was inactive. Also, the outcome (in [6]; in the experiment filed under Rattus norvegicus [8]; in the experiment filed under Rattus norvegicus [9]; in experiment [10]; in experiment [12]) was Active.
`Cc1nc2c([nH]1)C(=O)/C(=N/c1ccc(Cl)cc1Cl)C(Cl)=C2O`: the IC50 with NIH3T3 came to 1200 nM; with HUVEC, 500 nM; in experiment [1], 800 nM.
The corresponding values for `Cc1ccc(NC2=C(Cl)C(=O)c3nc(C)[nH]c3C2=O)cc1` are 1600 nM, 1000 nM and 800 nM.
For `Cc1nc2c([nH]1)C(=O)/C(=N/c1ccc(Cl)cc1)C(Cl)=C2O` the same measures were 1300 nM, 800 nM and 2800 nM.
The corresponding values for `Cc1nc2c([nH]1)C(=O)/C(=N/c1ccc(C(F)(F)F)cc1)C(Cl)=C2O` are 1100 nM, 600 nM and 600 nM.
As to `Cc1nc2c([nH]1)C(=O)/C(=N/c1cccc(Br)c1)C(Cl)=C2O`, the IC50 in the experiment with NIH3T3 worked out at 800 nM; with HUVEC, 800 nM; in [1] it was 1000 nM.
